# Earlier results as cited in patent publication US11045513B2, “Association of dry extracts of Vicia faba, Uncaria rhyncophylla and liquorice root together with coenzyme Q10 for use as coadjuvant, for improving the quality of life in subjects suffering from movement disorders” (CRISTALFARMA S.R.L., priority 2018, dated 2021).
# Target: dopamine D3 receptor (DRD3) (Homo sapiens, UniProt P35462)
# Sequence (P35462 whole entry): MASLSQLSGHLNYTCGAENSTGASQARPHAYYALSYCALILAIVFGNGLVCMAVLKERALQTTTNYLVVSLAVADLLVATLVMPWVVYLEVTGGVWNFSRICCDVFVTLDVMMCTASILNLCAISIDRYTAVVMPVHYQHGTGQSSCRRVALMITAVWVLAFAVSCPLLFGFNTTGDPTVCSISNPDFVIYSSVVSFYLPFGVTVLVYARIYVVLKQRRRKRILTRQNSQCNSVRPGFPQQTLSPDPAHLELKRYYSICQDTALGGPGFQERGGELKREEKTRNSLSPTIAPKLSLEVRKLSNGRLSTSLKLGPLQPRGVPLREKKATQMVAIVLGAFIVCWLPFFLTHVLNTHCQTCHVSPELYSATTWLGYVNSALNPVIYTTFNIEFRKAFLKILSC
compound,measurement,value
CC1(C)[C@@H](O)CC[C@]2(C)[C@H]3C(=O)C=C4[C@@H]5C[C@@](C)(C(=O)O)CC[C@]5(C)CC[C@@]4(C)[C@]3(C)CC[C@@H]12 [glycyrrhetinic acid],binding affinity for the dopamine D3 receptor (DRD3),strong binding affinity
